{"source": "patent US5633345A", "about": "“Cyclic peptides” (priority 1992, dated 1997)", "note": "Starred links: 1 amine or outer side, 2 acyl side, 3 side chain; linkers in the order of their positions; H or OH if unused. Non-standard residues stand in square brackets, D forms with d. Residues, ends and D or L forms follow the SMILES beside them. *: point of attachment. X7 = CC(=O)OC(c1ccccc1)[C@@H](C(=O)[*:2])N(C)[*:1]; NMePhe(2-F) = CN[C@@H](Cc1ccccc1F)C(=O)O; X1 = CC[C@@H](C)[C@@H](O[*:1])C(=O)[*:2]; NMeVal(β-OH) = CN[C@H](C(=O)O)C(C)(C)O; X4 = CC(O)[C@@H](C)C(O[*:1])C(=O)[*:2]; X6 = CC(CO)[C@@H](C(=O)[*:2])N(C)[*:1]; NMeaIle = CC[C@@H](C)[C@H](NC)C(=O)O; Phe(2-F) = N[C@@H](Cc1ccccc1F)C(=O)O; X5 = CN([C@@H](CCCO)C(=O)[*:2])[*:1]; NMeY = CN[C@@H](Cc1ccc(O)cc1)C(=O)O; NMeF = CN[C@@H](Cc1ccccc1)C(=O)O; aIle = CC[C@@H](C)[C@H](N)C(=O)O; Nva(5-OH) = N[C@@H](CCCO)C(=O)O; NMeL = CN[C@@H](CC(C)C)C(=O)O; NMeV = CN[C@H](C(=O)O)C(C)C; Thz = O=C(O)[C@@H]1CSCN1; Nva = CCC[C@H](N)C(=O)O; OBn = c1ccc(CO*)cc1; Sar = CNCC(=O)O", "data": [{"details": "mouse, in vivo, ip, 100 mg/kg", "values": [{"smiles": "CC[C@@H](C)[C@H]1OC(=O)[C@H](C(C)(C)O)N(C)C(=O)[C@H](CC(C)C)NC(=O)[C@H](C(C)C)N(C)C(=O)[C@H](C(C)C)NC(=O)[C@@H]2CCCN2C(=O)[C@H](Cc2ccccc2)N(C)C(=O)[C@H](Cc2ccccc2)NC(=O)[C@H](C(C)C)N(C)C1=O", "note": "[Compound 3] (HELM PEPTIDE1{F.[meF].P.V.[meV].L.[CN([C@H](C(=O)[*:2])C(C)(C)O)[*:1]].[CC[C@@H](C)[C@@H](O[*:1])C(=O)[*:2]].[meV]}$PEPTIDE1,PEPTIDE1,1:R1-9:R2$$$V2.0)", "toxicity signs": "no toxicity signs"}, {"smiles": "CC[C@@H](C)[C@@H]1NC(=O)[C@@H]2CCCN2C(=O)CN(C)C(=O)[C@H](Cc2ccccc2)NC(=O)[C@H](C(C)C)N(C)C(=O)[C@@H]([C@H](C)CC)OC(=O)[C@H](C(C)(C)O)N(C)C(=O)[C@H](CC(C)C)NC(=O)[C@H](C(C)C)N(C)C1=O", "note": "[Compound 13] (cyclo(F[Sar]P[aIle][NMeV]L[NMeVal(β-OH)][X1][NMeV]))", "toxicity signs": "no toxicity signs"}, {"smiles": "CC[C@@H](C)[C@@H]1NC(=O)[C@@H]2CCCN2C(=O)[C@H](Cc2ccccc2)N(C)C(=O)[C@H](Cc2ccccc2)NC(=O)[C@H](C(C)C)N(C)C(=O)[C@@H]([C@H](C)CC)OC(=O)[C@H]([C@@H](C)O)N(C)C(=O)[C@H](CC(C)C)NC(=O)[C@H](C(C)C)N(C)C1=O", "note": "[Compound 19, Cyclo(L-aIle-L-MeVal-L-Leu-L-MeThr-D-Hmp-L-MeVal-L-Phe-L-MePhe-L-Pro)] (HELM PEPTIDE1{F.[meF].P.[CC[C@@H](C)[C@H](N[*:1])C(=O)[*:2]].[meV].L.[meT].[CC[C@@H](C)[C@@H](O[*:1])C(=O)[*:2]].[meV]}$PEPTIDE1,PEPTIDE1,1:R1-9:R2$$$V2.0)", "toxicity signs": "no toxicity signs"}, {"smiles": "CCCC[C@@H]1NC(=O)[C@@H]2CCCN2C(=O)[C@H](Cc2ccccc2)N(C)C(=O)[C@H](Cc2ccccc2)NC(=O)[C@H](C(C)C)N(C)C(=O)[C@@H]([C@H](C)CC)OC(=O)[C@H](C(C)(C)O)N(C)C(=O)[C@H](CC(C)C)NC(=O)[C@H](C(C)C)N(C)C1=O", "note": "[Compound 11] (HELM PEPTIDE1{F.[meF].P.[Nle].[meV].L.[CN([C@H](C(=O)[*:2])C(C)(C)O)[*:1]].[CC[C@@H](C)[C@@H](O[*:1])C(=O)[*:2]].[meV]}$PEPTIDE1,PEPTIDE1,1:R1-9:R2$$$V2.0)", "toxicity signs": "no toxicity signs"}, {"smiles": "CC[C@@H](C)[C@@H]1NC(=O)[C@@H]2CCCN2C(=O)[C@H](Cc2ccccc2)N(C)C(=O)[C@H](Cc2ccccc2)NC(=O)[C@H](C(C)C)N(C)C(=O)[C@@H]([C@H](C)CC)OC(=O)[C@H](C(C)(C)O)N(C)C(=O)[C@H](CCCO)NC(=O)[C@H](C(C)C)N(C)C1=O", "note": "[Compound 39, cyclo(L-aIle-L-MeVal-L-HONva-L-βHOMeVal-D-Hmp-L-MeVal-L-Phe-L-MePhe-L-Pro)] (cyclo(F[NMeF]P[aIle][NMeV][Nva(5-OH)][NMeVal(β-OH)][X1][NMeV]))", "toxicity signs": "no toxicity signs"}, {"smiles": "CC[C@@H](C)[C@@H]1NC(=O)[C@@H]2CCCN2C(=O)[C@H](Cc2ccccc2F)N(C)C(=O)[C@H](Cc2ccccc2F)NC(=O)[C@H](C(C)C)N(C)C(=O)[C@@H]([C@H](C)CC)OC(=O)[C@H](C(C)(C)O)N(C)C(=O)[C@H](CC(C)C)NC(=O)[C@H](C(C)C)N(C)C1=O", "note": "[Compound 7] (cyclo(L[NMeVal(β-OH)][X1][NMeV][Phe(2-F)][NMePhe(2-F)]P[aIle][NMeV]))", "toxicity signs": "no toxicity signs"}, {"smiles": "CC[C@@H](C)[C@H]1OC(=O)[C@H](C(C)(C)O)N(C)C(=O)[C@H](CC(C)C)NC(=O)[C@H](C(C)C)N(C)C(=O)[C@H](CC(C)C)NC(=O)[C@@H]2CCCN2C(=O)[C@H](Cc2ccccc2)N(C)C(=O)[C@H](Cc2ccccc2)NC(=O)[C@H](C(C)C)N(C)C1=O", "note": "[Compound 6] (HELM PEPTIDE1{F.[meF].P.L.[meV].L.[CN([C@H](C(=O)[*:2])C(C)(C)O)[*:1]].[CC[C@@H](C)[C@@H](O[*:1])C(=O)[*:2]].[meV]}$PEPTIDE1,PEPTIDE1,1:R1-9:R2$$$V2.0)", "toxicity signs": "no toxicity signs"}, {"smiles": "CC[C@@H](C)[C@@H]1NC(=O)[C@@H]2CCCN2C(=O)[C@H](C(OC(C)=O)c2ccccc2)N(C)C(=O)[C@H](Cc2ccccc2)NC(=O)[C@H](C(C)C)N(C)C(=O)[C@@H]([C@H](C)CC)OC(=O)[C@H](C(C)(C)O)N(C)C(=O)[C@H](CC(C)C)NC(=O)[C@H](C(C)C)N(C)C1=O", "note": "(stereo partly drawn) [Compound 15] (cyclo(F[X7]P[aIle][NMeV]L[NMeVal(β-OH)][X1][NMeV]))", "toxicity signs": "no toxicity signs"}, {"smiles": "CC[C@@H](C)[C@@H]1NC(=O)[C@@H]2CCCN2C(=O)[C@H](Cc2ccccc2)N(C)C(=O)[C@H](Cc2ccccc2)NC(=O)[C@H](C(C)C)N(C)C(=O)[C@@H]([C@H](C)CC)OC(=O)[C@H](C(C)(C)O)N(C)C(=O)[C@H](CC(C)C)NC(=O)[C@H]([C@H](C)CC)N(C)C1=O", "note": "[Compound 22, cyclo (L-aIle-L-MeaIle-L-Leu-L-βHOMeVal-D-Hmp-L-MeVal-L-Phe-L-MePhe-L-Pro)] (cyclo(F[NMeF]P[aIle][NMeaIle]L[NMeVal(β-OH)][X1][NMeV]))", "toxicity signs": "no toxicity signs"}, {"smiles": "CC[C@@H](C)[C@H]1OC(=O)[C@H](C(C)(C)O)N(C)C(=O)[C@H](CC(C)C)NC(=O)[C@H](C(C)C)N(C)C(=O)[C@H](CCC(=O)OCc2ccccc2)NC(=O)[C@@H]2CCCN2C(=O)[C@H](Cc2ccccc2)N(C)C(=O)[C@H](Cc2ccccc2)NC(=O)[C@H](C(C)C)N(C)C1=O", "note": "[Compound 26, cyclo(L-GluOR-L-MeVal-L-Leu-L-βHOMeVal-D-Hmp-L-MeVal-L-Phe-L-MePhe-L- Pro) (R: Bzl)] (cyclo(E(OBn)[NMeV]L[NMeVal(β-OH)][X1][NMeV]F[NMeF]P))", "toxicity signs": "no toxicity signs"}, {"smiles": "CC[C@@H](C)[C@@H]1NC(=O)[C@@H]2CCCN2C(=O)[C@H](Cc2ccccc2)N(C)C(=O)[C@H](Cc2ccccc2)NC(=O)[C@H](C(C)C)N(C)C(=O)C([C@H](C)C(C)O)OC(=O)[C@H](C(C)(C)O)N(C)C(=O)[C@H](CC(C)C)NC(=O)[C@H](C(C)C)N(C)C1=O", "note": "(stereo partly drawn) [Compound 17] (cyclo(F[NMeF]P[aIle][NMeV]L[NMeVal(β-OH)][X4][NMeV]))", "toxicity signs": "no toxicity signs"}, {"smiles": "CC(C)C[C@@H]1NC(=O)[C@H](C(C)C)N(C)C(=O)[C@H](C(C)C)NC(=O)[C@@H]2CCCN2C(=O)[C@H](Cc2ccccc2)N(C)C(=O)[C@H](Cc2ccccc2)NC(=O)[C@H](C(C)C)N(C)C(=O)[C@@H](C(C)C)OC(=O)[C@H](C(C)(C)O)N(C)C1=O", "note": "[Compound 25] (HELM PEPTIDE1{F.[meF].P.V.[meV].L.[CN([C@H](C(=O)[*:2])C(C)(C)O)[*:1]].[CC(C)[C@@H](O[*:1])C(=O)[*:2]].[meV]}$PEPTIDE1,PEPTIDE1,1:R1-9:R2$$$V2.0)", "toxicity signs": "no toxicity signs"}, {"smiles": "CC[C@@H](C)[C@@H]1NC(=O)[C@@H]2CCCN2C(=O)[C@H](Cc2ccc(O)cc2)N(C)C(=O)[C@H](Cc2ccccc2)NC(=O)[C@H](C(C)C)N(C)C(=O)[C@@H]([C@H](C)CC)OC(=O)[C@H](C(C)(C)O)N(C)C(=O)[C@H](CC(C)C)NC(=O)[C@H](C(C)C)N(C)C1=O", "note": "[Compound 8] (cyclo(F[NMeY]P[aIle][NMeV]L[NMeVal(β-OH)][X1][NMeV]))", "toxicity signs": "no toxicity signs"}, {"smiles": "CC[C@@H](C)[C@@H]1NC(=O)[C@@H]2CCCN2C(=O)[C@H](Cc2ccccc2)N(C)C(=O)[C@H](Cc2ccccc2)NC(=O)[C@H](C(C)C)N(C)C(=O)[C@@H]([C@H](C)CC)OC(=O)[C@H](C(C)(C)O)N(C)C(=O)[C@H](CC(C)C)NC(=O)[C@H](CC(C)C)N(C)C1=O", "note": "[Compound 23, cyclo(L-aIle-L-MeLeu-L-Leu-L-βHOMeVal-D-Hmp-L-MeVal-L-Phe-L-MePhe-L-Pro)] (cyclo(F[NMeF]P[aIle][NMeL]L[NMeVal(β-OH)][X1][NMeV]))", "toxicity signs": "no toxicity signs"}, {"smiles": "CC[C@@H](C)[C@@H]1NC(=O)[C@@H]2CSCN2C(=O)[C@H](Cc2ccccc2)N(C)C(=O)[C@H](Cc2ccccc2)NC(=O)[C@H](C(C)C)N(C)C(=O)[C@@H]([C@H](C)CC)OC(=O)[C@H](C(C)(C)O)N(C)C(=O)[C@H](CC(C)C)NC(=O)[C@H](C(C)C)N(C)C1=O", "note": "[Compound 10] (cyclo(F[NMeF][Thz][aIle][NMeV]L[NMeVal(β-OH)][X1][NMeV]))", "toxicity signs": "no toxicity signs"}, {"smiles": "CC[C@@H](C)[C@@H]1NC(=O)[C@@H]2CCCN2C(=O)[C@H](Cc2ccccc2)N(C)C(=O)[C@H](Cc2ccccc2)NC(=O)[C@H](C(C)C)N(C)C(=O)[C@@H]([C@H](C)CC)OC(=O)[C@H](C(C)CO)N(C)C(=O)[C@H](CC(C)C)NC(=O)[C@H](C(C)C)N(C)C1=O", "note": "(stereo partly shown) [Compound 4] (cyclo(F[NMeF]P[aIle][NMeV]L[X6][X1][NMeV]))", "toxicity signs": "no toxicity signs"}, {"smiles": "CC[C@@H](C)[C@@H]1NC(=O)[C@@H]2CCCN2C(=O)[C@H](Cc2ccccc2)N(C)C(=O)[C@H](Cc2ccccc2)NC(=O)[C@H](C(C)C)N(C)C(=O)[C@@H]([C@H](C)CC)OC(=O)[C@H](C(C)(C)O)N(C)C(=O)[C@H](CC(C)C)NC(=O)[C@H](CCCO)N(C)C1=O", "note": "[Compound 28, cyclo(L-aIle-L-HOMeNva-L-Leu-L-βHOMeVal-D-Hmp-L-MeVal-L-Phe-L-MePhe-L-Pro)] (cyclo(F[NMeF]P[aIle][X5]L[NMeVal(β-OH)][X1][NMeV]))", "toxicity signs": "no toxicity signs"}, {"smiles": "CCC[C@@H]1NC(=O)[C@H](C(C)C)N(C)C(=O)[C@H]([C@H](C)CC)NC(=O)[C@@H]2CCCN2C(=O)[C@H](Cc2ccccc2)N(C)C(=O)[C@H](Cc2ccccc2)NC(=O)[C@H](C(C)C)N(C)C(=O)[C@@H]([C@H](C)CC)OC(=O)[C@H](C(C)(C)O)N(C)C1=O", "note": "[Compound 12] (cyclo(F[NMeF]P[aIle][NMeV][Nva][NMeVal(β-OH)][X1][NMeV]))", "toxicity signs": "no toxicity signs"}, {"smiles": "CC[C@@H](C)[C@@H]1NC(=O)[C@@H]2CCCN2C(=O)[C@H](Cc2ccccc2)N(C)C(=O)[C@H](Cc2ccccc2)NC(=O)[C@H](C(C)C)N(C)C(=O)[C@@H]([C@H](C)CC)OC(=O)[C@H](C(C)(C)O)N(C)C(=O)[C@H]([C@H](C)CC)NC(=O)[C@H](C(C)C)N(C)C1=O", "note": "[Compound 24, cyclo(L-aIle-L-MeVal-L-aIle-L-βHOMeVal-D-Hmp-L-MeVal-L-Phe-L-MePhe-L- Pro)] (cyclo(F[NMeF]P[aIle][NMeV][aIle][NMeVal(β-OH)][X1][NMeV]))", "toxicity signs": "no toxicity signs"}]}]}
